Experimental data as given in US20260184710A1, “CASITAS B-LINEAGE LYMPHOMA PROTOONCOGENE B (CBL-B) DEGRADING COMPOUNDS AND ASSOCIATED METHODS OF USE” (Arvinas Operations, Inc., priority 2022, published 2026).

Target: T1, Cbl-b (Homo sapiens, UniProt Q13191)
T1 construct: Cbl-b-HiBit KI Jurkat Cells were purchased from Promega; host or cells: Cbl-b-HiBiT knock-in Jurkat cells
Assay: Cbl-b Degradation Method B (Nano-Glo HiBiT lytic detection)
Format: cell-based
Conditions: Cbl-b-HiBit KI Jurkat Cells, incubated at least 6-24 hours; for DC50: half maximal degradation, read-out: Cbl-b Degredation Method B IC50; for Dmax: maximum degradation observed, read-out: Cbl-b Degredation Method B Dmax (%)
Description: Cbl-b Degradation Method B [table] Cbl-b-HiBit KI Jurkat Cells were purchased from Promega, and cell media consisted of RPMI 1640 with 10% […] and 1% pen/strep. The cells were counted, measured for viability, and 35 μL of the cell solution was seeded into 384 well flat bottom plates at a ratio of 20,000 cells per 35 μL. After which, the plates were incubated for ˜24 hours at 37° C. and 5% CO2. Compounds were ordered from Evotec in a 384 well plate at a 1 mM top concentration in DMSO and serially diluted 1:3 in DMSO for an 11-point dose response. Using the Bravo instrument, 1 uL of compound solution or DMSO was transferred to 125 uL of media. Each well was treated with 5 μL of compound plus media mixture or DMO and subsequently incubated for at least 6-24 hours at 37° C. and 5% CO2. After incubation, 30 μL of either NanoGlo media was added to each cell, and the plates read on the Synergy Neo2 machine. The concentration of an exemplary compound that leads to half maximal degradation (DC50) as well as the maximum degradation observed (Dmax, conventionally expressed as a percentage of control) is shown below in Table 2.

T1 sequence (Q13191 whole entry): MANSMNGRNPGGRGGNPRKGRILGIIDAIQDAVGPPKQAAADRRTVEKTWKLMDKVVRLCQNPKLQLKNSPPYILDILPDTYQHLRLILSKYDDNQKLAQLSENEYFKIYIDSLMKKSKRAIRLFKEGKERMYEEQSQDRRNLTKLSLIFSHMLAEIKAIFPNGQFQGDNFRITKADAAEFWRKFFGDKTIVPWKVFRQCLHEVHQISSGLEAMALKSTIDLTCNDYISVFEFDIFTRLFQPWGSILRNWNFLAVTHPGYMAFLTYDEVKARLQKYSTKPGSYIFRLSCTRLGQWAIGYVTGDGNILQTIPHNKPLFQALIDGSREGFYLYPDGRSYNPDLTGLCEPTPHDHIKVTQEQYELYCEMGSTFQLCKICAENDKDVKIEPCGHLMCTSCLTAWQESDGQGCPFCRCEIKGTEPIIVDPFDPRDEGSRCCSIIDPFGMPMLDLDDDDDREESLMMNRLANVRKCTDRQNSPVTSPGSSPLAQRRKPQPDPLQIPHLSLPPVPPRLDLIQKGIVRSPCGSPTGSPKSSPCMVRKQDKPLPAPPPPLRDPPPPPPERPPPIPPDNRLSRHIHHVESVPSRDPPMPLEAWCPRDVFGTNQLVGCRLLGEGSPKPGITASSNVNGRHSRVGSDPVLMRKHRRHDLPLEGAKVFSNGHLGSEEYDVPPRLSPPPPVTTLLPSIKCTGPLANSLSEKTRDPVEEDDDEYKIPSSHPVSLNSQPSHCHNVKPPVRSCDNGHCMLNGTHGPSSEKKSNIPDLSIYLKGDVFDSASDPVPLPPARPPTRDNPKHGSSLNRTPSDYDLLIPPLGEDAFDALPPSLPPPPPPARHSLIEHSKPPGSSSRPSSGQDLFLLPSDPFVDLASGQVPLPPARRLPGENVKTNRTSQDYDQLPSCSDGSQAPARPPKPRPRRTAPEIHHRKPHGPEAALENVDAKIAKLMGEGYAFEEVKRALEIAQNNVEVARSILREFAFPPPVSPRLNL

Row | DC50 | Dmax | SMILES
1 | > 500 nM | – | Cn1cnnc1CC1(c2cccc(N3Cc4c(cc(CN5CCN(CC6CCN(c7ccc(F)c(C(=O)NC8CCC(=O)NC8=O)c7)CC6)CC5)cc4C(F)(F)F)C3=O)c2)COC1 (stereo not shown) [Example 54, N-(2,6-dioxopiperidin-3-yl)-2-fluoro-5-{4-[(4-{[2-(3-{3-[(4-methyl-4H-1,2,4-triazol-3-yl)methyl]oxetan-3-yl}phenyl)-3-oxo-7-(trifluoromethyl)-2,3-dihydro-1H-isoindol-5-yl]methyl}piperazin-1-yl)methyl]piperidin-1-yl}benzamide]
2 | > 500 nM | – | Cc1cc(N2CCC(CN3CCC4(CC3)CN(c3ccc5cn(-c6cccc(C7(Cc8nncn8C)COC7)c6)nc5c3)C4)CC2)c(F)c2c1C(=O)N(C1CCC(=O)NC1=O)C2 (stereo not shown) [Example 261, 3-{4-fluoro-7-methyl-5-[4-({2-[2-(3-{3-[(4-methyl-4H-1,2,4-triazol-3-yl)methyl]oxetan-3-yl}phenyl)-2H-indazol-6-yl]-2,7-diazaspiro[3.5]nonan-7-yl}methyl)piperidin-1-yl]-1-oxo-2,3-dihydro-1H-isoindol-2-yl}piperidine-2,6-dione]
3 | < 5 nM | > 70% | C[C@@H]1c2nc(N3CCC(O[C@H]4CC[C@H](CN5CCN(Cc6cc7c(c(C(F)(F)F)c6)CN(c6cccc(C8(Cc9nncn9C)CC(C#N)C8)c6)C7=O)[C@@H](C)C5)CC4)CC3)ccc2C(=O)N1C1CCC(=O)NC1=O (single isomer, unassigned) [Example 247, (1r***,3r***)-3-[3-(6-{[(2S)-2-methyl-4-{[(1r**,4r**)-4-({1-[(7R*)-6-(2,6-dioxopiperidin-3-yl)-7-methyl-5-oxo-5H,6H,7H-pyrrolo[3,4-b]pyridin-2-yl]piperidin-4-yl}oxy)cyclohexyl]methyl}piperazin-1-yl]methyl}-1-oxo-4-(trifluoromethyl)-2,3-dihydro-1H-isoindol-2-yl)phenyl]-3-[(4-methyl-4H-1,2,4-triazol-3-yl)methyl]cyclobutane-1-carbonitrile]
4 | < 5 nM | 35 to 70% | Cn1cnnc1C[C@]1(c2cccc(N3Cc4c(cc(CN5CCN(C[C@H]6CC[C@H](OC7CCN(c8ccc9c(ccn9C9CCC(=O)NC9=O)c8)CC7)CC6)CC5)cc4C(F)(F)F)C3=O)c2)C[C@H](C#N)C1 (stereo partly shown) [Example 226, (1r,3r)-3-[(4-methyl-4H-1,2,4-triazol-3-yl)methyl]-3-(3-{1-oxo-6-[(4-{[(1r,4r)-4-({1-[1-(2,6-dioxopiperidin-3-yl)-1H-indol-5-yl]piperidin-4-yl}oxy)cyclohexyl]methyl}piperazin-1-yl)methyl]-4-(trifluoromethyl)-2,3-dihydro-1H-isoindol-2-yl}phenyl)cyclobutane-1-carbonitrile]
5 | > 500 nM | – | Cn1cnnc1CC1(c2cccc(N3Cc4c(cc(CN5CCN(CC6CCN(c7ccc(N8CCC(=O)NC8=O)c(F)c7)CC6)CC5)cc4C(F)(F)F)C3=O)c2)COC1 [Example 57, 1-(2-fluoro-4-{4-[(4-{[2-(3-{3-[(4-methyl-4H-1,2,4-triazol-3-yl)methyl]oxetan-3-yl}phenyl)-3-oxo-7-(trifluoromethyl)-2,3-dihydro-1H-isoindol-5-yl]methyl}piperazin-1-yl)methyl]piperidin-1-yl}phenyl)-1,3-diazinane-2,4-dione]
6 | > 500 nM | – | Cn1cnnc1CC1(c2cccc(N3Cc4c(cc(CN5CCC(c6ccc7c(c6)CN(C6CCC(=O)NC6=O)C7=O)CC5)cc4C(F)(F)F)C3=O)c2)COC1 (stereo not shown) [Example 34, 3-[5-(1-{[2-(3-{3-[(4-methyl-4H-1,2,4-triazol-3-yl)methyl]oxetan-3-yl}phenyl)-3-oxo-7-(trifluoromethyl)-2,3-dihydro-1H-isoindol-5-yl]methyl}piperidin-4-yl)-1-oxo-2,3-dihydro-1H-isoindol-2-yl]piperidine-2,6-dione]
7 | > 500 nM | – | C[C@@H]1c2nc(N3CCC(O[C@H]4CC[C@H](CN5CCN(Cc6cc7c(c(C(F)(F)F)c6)CN(c6cccc(C8(Cc9nncn9C)CC(C#N)C8)c6)C7=O)C6(CC6)C5)CC4)CC3)ccc2C(=O)N1C1CCC(=O)NC1=O (single isomer, unassigned) [Example 305, (1r***,3r***)-3-[(4-methyl-4H-1,2,4-triazol-3-yl)methyl]-3-(3-{1-oxo-6-[(7-{[(1r**,4r**)-4-({1-[(7R*)-6-(2,6-dioxopiperidin-3-yl)-7-methyl-5-oxo-5H,6H,7H-pyrrolo[3,4-b]pyridin-2-yl]piperidin-4-yl}oxy)cyclohexyl]methyl}-4,7-diazaspiro[2.5]octan-4-yl)methyl]-4-(trifluoromethyl)-2,3-dihydro-1H-isoindol-2-yl}phenyl)cyclobutane-1-carbonitrile]
8 | < 5 nM | 35 to 70% | CC1c2nc(N3CCC(O[C@H]4CC[C@H](CN5CCN(Cc6cc7c(c(C(F)(F)F)c6)CN(c6cccc([C@]8(Cc9nncn9C)C[C@@H](C#N)C8)c6)C7=O)C(C)(C)C5)CC4)CC3)ccc2C(=O)N1C1CCC(=O)NC1=O (stereo partly shown) [Example 152, 3-[3-[6-[[4-[[4-[[1-[6-(2,6-dioxo-3-piperidyl)-7-methyl-5-oxo-7H-pyrrolo[3,4-b]pyridin-2-yl]-4-piperidyl]oxy]cyclohexyl]methyl]-2,2-dimethyl-piperazin-1-yl]methyl]-1-oxo-4-(trifluoromethyl)isoindolin-2-yl]phenyl]-3-[(4-methyl-1,2,4-triazol-3-yl)methyl]cyclobutanecarbonitrile]
9 | > 500 nM | – | C[C@@H]1c2nc(N3CCC(O[C@H]4CC[C@H](CN5CCN(Cc6cc7c(c(C(F)(F)F)c6)CN(c6cccc(C8(Cc9nncn9C)CC(C#N)C8)c6)C7=O)CC5(C)C)CC4)CC3)ccc2C(=O)N1C1CCC(=O)NC1=O (single isomer, unassigned) [Example 313, (1r***,3r***)-3-(3-{6-[(3,3-dimethyl-4-{[(1r**,4r**)-4-({1-[(7R*)-6-(2,6-dioxopiperidin-3-yl)-7-methyl-5-oxo-5H,6H,7H-pyrrolo[3,4-b]pyridin-2-yl]piperidin-4-yl}oxy)cyclohexyl]methyl}piperazin-1-yl)methyl]-1-oxo-4-(trifluoromethyl)-2,3-dihydro-1H-isoindol-2-yl}phenyl)-3-[(4-methyl-4H-1,2,4-triazol-3-yl)methyl]cyclobutane-1-carbonitrile]
10 | > 500 nM | – | Cn1cnnc1CC1(c2cccc(N3Cc4c(cc(CN5CCN([C@H]6CC[C@H](Nc7ccc8c(c7)C(=O)N(C7CCC(=O)NC7=O)C8=O)CC6)CC5)cc4C(F)(F)F)C3=O)c2)COC1 (stereo partly shown) [Example 44, 2-(2,6-dioxopiperidin-3-yl)-5-{[(1r,4r)-4-(4-{[2-(3-{3-[(4-methyl-4H-1,2,4-triazol-3-yl)methyl]oxetan-3-yl}phenyl)-3-oxo-7-(trifluoromethyl)-2,3-dihydro-1H-isoindol-5-yl]methyl}piperazin-1-yl)cyclohexyl]amino}-2,3-dihydro-1H-isoindole-1,3-dione]
11 | < 5 nM | > 70% | C[C@@H]1CN(Cc2cc3c(c(C(F)(F)F)c2)CN(c2cccc(C4(Cc5nncn5C)COC4)c2)C3=O)CCN1C[C@H]1CC[C@H](OC2CCN(c3ccc4c(c3F)CN(C3CCC(=O)NC3=O)C4=O)CC2)CC1 (stereo partly drawn) [Example 244, 3-[4-fluoro-1-oxo-5-(4-{[(1r*,4r*)-4-{[(2R)-2-methyl-4-{[2-(3-{3-[(4-methyl-4H-1,2,4-triazol-3-yl)methyl]oxetan-3-yl}phenyl)-3-oxo-7-(trifluoromethyl)-2,3-dihydro-1H-isoindol-5-yl]methyl}piperazin-1-yl]methyl}cyclohexyl]oxy}piperidin-1-yl)-2,3-dihydro-1H-isoindol-2-yl]piperidine-2,6-dione]
12 | 5 to 50 nM | < 35% | Cn1cnnc1CC1(c2cccc(N3Cc4c(cc(CN[C@H]5CC[C@H](N6CCN(c7ccc8c(c7)C(=O)N(C7CCC(=O)NC7=O)C8=O)CC6)CC5)cc4C(F)(F)F)C3=O)c2)COC1 (stereo partly shown) [Example 43, 2-(2,6-dioxopiperidin-3-yl)-5-{4-[(1r,4r)-4-({[2-(3-{3-[(4-methyl-4H-1,2,4-triazol-3-yl)methyl]oxetan-3-yl}phenyl)-3-oxo-7-(trifluoromethyl)-2,3-dihydro-1H-isoindol-5-yl]methyl}amino)cyclohexyl]piperazin-1-yl}-2,3-dihydro-1H-isoindole-1,3-dione]
13 | < 5 nM | 35 to 70% | CC1c2nc(N3CCC(O[C@H]4CC[C@H](CN5C[C@H]6C[C@@H]5CN6Cc5cc6c(c(C(F)(F)F)c5)CN(c5cccc(C7(Cc8nncn8C)CC7)c5)C6=O)CC4)CC3)ccc2C(=O)N1C1CCC(=O)NC1=O (stereo partly drawn) [Example 222, 3-[7-methyl-5-oxo-2-(4-{[(1r,4r)-4-{[(1R,4R)-5-{[2-(3-{1-[(4-methyl-4H-1,2,4-triazol-3-yl)methyl]cyclopropyl}phenyl)-3-oxo-7-(trifluoromethyl)-2,3-dihydro-1H-isoindol-5-yl]methyl}-2,5-diazabicyclo[2.2.1]heptan-2-yl]methyl}cyclohexyl]oxy}piperidin-1-yl)-5H,6H,7H-pyrrolo[3,4-b]pyridin-6-yl]piperidine-2,6-dione]
